Measured values taken from ChEMBL document CHEMBL1142012, “Synthesis and SAR of 4-(3-hydroxyphenylamino)pyrrolo[2,1-f][1,2,4]triazine based VEGFR-2 kinase inhibitors” (Bioorg Med Chem Lett, 2005).
pIC50: −log10 of the molar value.

Columns and labels:
[1] = molecular target: Vascular endothelial growth factor receptor 2 (Homo sapiens, UniProt P35968); assay: Inhibitory concentration against Vascular endothelial growth factor receptor 2
Homo sapiens = organism: Homo sapiens; details: Liver, Microsome
Cell line [2] = assay: Inhibitory concentration against Human umbilical vein endothelial cells stimulated by VEGF was determined; assay type: functional, cell-based
Cell line [3] = assay: Inhibitory concentration against Human umbilical vein endothelial cells stimulated by VEGF was determined;NA= not active; assay type: functional, cell-based
[4] = Glucuronidation in human liver microsomes was determined; assay type: ADME, Microsome
[5] = Area under the concentration time curve (0-4 hr) value in mouse after 50 mg/kg oral dosage; assay type: ADME, organism-based; set-up: time < 4 hr, dose 50 mg/kg, route oral; details: in vivo
[6] = Maximum plasma concentration in mouse after 50 mg/kg oral dosage; assay type: ADME, organism-based; set-up: dose 50 mg/kg, route oral

Sequence of Vascular endothelial growth factor receptor 2 (P35968 whole entry): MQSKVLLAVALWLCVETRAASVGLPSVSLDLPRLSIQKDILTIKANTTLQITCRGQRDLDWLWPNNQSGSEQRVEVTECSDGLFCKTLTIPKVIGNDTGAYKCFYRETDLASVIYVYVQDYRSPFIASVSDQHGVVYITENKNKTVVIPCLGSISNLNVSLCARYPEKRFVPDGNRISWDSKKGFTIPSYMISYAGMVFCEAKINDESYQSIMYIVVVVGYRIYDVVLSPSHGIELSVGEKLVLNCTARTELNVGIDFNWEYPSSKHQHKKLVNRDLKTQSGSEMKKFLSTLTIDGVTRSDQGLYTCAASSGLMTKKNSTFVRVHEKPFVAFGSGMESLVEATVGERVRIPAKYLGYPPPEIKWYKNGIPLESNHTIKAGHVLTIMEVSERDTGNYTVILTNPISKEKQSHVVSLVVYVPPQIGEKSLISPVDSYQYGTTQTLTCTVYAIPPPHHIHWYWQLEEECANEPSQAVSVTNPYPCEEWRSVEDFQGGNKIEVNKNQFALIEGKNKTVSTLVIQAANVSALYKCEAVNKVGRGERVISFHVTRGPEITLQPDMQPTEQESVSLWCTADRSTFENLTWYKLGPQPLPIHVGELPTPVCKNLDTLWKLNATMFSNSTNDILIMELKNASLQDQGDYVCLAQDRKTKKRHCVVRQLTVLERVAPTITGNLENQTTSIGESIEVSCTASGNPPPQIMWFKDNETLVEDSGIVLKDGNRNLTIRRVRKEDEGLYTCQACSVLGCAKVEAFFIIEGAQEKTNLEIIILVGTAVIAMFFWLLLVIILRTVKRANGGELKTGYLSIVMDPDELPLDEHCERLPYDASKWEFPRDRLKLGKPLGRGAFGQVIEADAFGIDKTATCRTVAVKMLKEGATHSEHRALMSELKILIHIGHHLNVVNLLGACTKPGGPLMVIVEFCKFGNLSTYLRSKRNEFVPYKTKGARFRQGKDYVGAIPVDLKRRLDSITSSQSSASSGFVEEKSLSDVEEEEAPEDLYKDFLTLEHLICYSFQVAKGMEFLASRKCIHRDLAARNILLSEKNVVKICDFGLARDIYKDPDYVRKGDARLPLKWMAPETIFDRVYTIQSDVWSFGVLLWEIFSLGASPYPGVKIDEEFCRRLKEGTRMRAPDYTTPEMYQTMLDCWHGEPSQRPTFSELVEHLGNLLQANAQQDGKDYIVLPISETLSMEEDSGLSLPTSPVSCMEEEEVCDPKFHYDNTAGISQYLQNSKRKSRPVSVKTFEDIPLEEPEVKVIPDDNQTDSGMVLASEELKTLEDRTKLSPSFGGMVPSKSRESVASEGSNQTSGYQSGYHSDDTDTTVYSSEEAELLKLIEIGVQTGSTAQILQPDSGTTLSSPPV

Row | Structure (SMILES) | pIC50 [1] | Glucuronidation (Homo sapiens) | pIC50 (Cell line [2]) | also measured
1 | COC(=O)c1cn2ncnc(Nc3ccc(C(C)C)c(O)c3)c2c1C | 6.42 |  |  | 
2 | COCCCNC(=O)c1cn2ncnc(Nc3ccc(C)c(O)c3)c2c1C | 6.82 | 0.16 nmol/min/mg |  | 
3 | COC(=O)c1cn2ncnc(Nc3ccc(Br)c(O)c3)c2c1C | 7.48 |  |  | 
4 | COC(=O)c1cn2ncnc(Nc3cccc(O)c3)c2c1C | 7.21 |  |  | 
5 | COC(=O)c1cn2ncnc(Nc3ccc(C(F)(F)F)c(O)c3)c2c1C | 6.43 |  |  | 
6 | COC(=O)c1cn2ncnc(Nc3ccc(C)c(O)c3)c2c1C | 8.00 |  |  | 
7 | CCOC(=O)c1cn2ncnc(Nc3ccc(C)c(O)c3)c2c1OCC | 7.19 |  | 7.40 | 
8 | COC(=O)c1cn2ncnc(Nc3ccc(C)c(O)c3)c2c1C(C)(C)C | 6.51 |  |  | IC50 (Cell line [3]): Not Active
9 | CCc1ccc(Nc2ncnn3cc(C(=O)OC)c(C)c23)cc1O | 7.26 |  |  | 
10 | Cc1ccc(Nc2ncnn3cc(OCCCN4CCCCC4)c(C(C)C)c23)cc1O | 8.40 | 0.03 nmol/min/mg | 9.00 | 
11 | CCCc1c(C(=O)OCC)cn2ncnc(Nc3ccc(C)c(O)c3)c12 | 8.52 |  | 8.22 | 
12 | CCCc1ccc(Nc2ncnn3cc(C(=O)OC)c(C)c23)cc1O | 6.72 |  |  | 
13 | Cc1ccc(Nc2ncnn3cc(C(=O)NCCCN4CCCC4)c(C)c23)cc1O | 7.40 |  | 8.00 | Glucuronidation [4]: 0.01 nmol/min/mg
14 | Cc1ccc(Nc2ncnn3cc(C(=O)NCCCN4CCCC4)c(C(C)C)c23)cc1O | 7.74 | 0.02 nmol/min/mg | 8.10 | AUC(0-t) at 4 h [5]: 0.267 µM·h; Cmax [6]: 166 nM
15 | Cc1ccc(Nc2ncnn3cc(C(=O)NCCCn4nccn4)c(C)c23)cc1O | 7.52 | 0.21 nmol/min/mg | 7.70 | 
16 | Cc1ccc(Nc2ncnn3cc(NC(=O)OCCCn4nccn4)c(C(C)C)c23)cc1O | 8.15 | 0.9 nmol/min/mg |  | 
17 | Cc1ccc(Nc2ncnn3cc(NC(=O)NCCCN4CCCCC4)c(C(C)C)c23)cc1O | 8.30 | 0.04 nmol/min/mg | 8.30 | 
18 | CCOC(=O)c1cn2ncnc(Nc3ccc(C)c(O)c3)c2c1C(C)C | 7.85 |  | 8.40 | 
19 | CCCc1c(C(=O)NCCCN2CCCC2)cn2ncnc(Nc3ccc(C)c(O)c3)c12 | 7.05 |  | 7.46 | 
20 | Cc1ccc(Nc2ncnn3cc(NC(=O)OCCCN4CCCCC4)c(C(C)C)c23)cc1O | 8.30 | 0.08 nmol/min/mg | 9.00 | 
21 | Cc1ccc(Nc2ncnn3cc(C(=O)NCCCN4CCOCC4)c(C)c23)cc1O | 7.28 | 0.01 nmol/min/mg | 8.52 | 
